Earlier results, collected in patent US20060094833A1, “Shock resistant cyanoacrylate compositions” (LOCTITE (R&D) LIMITED, priority 2004, published 2006).

Settings: for pKa 1: first acid group; for pKa 4: fourth; for pKa 2: second acid group; for pKa 3: third acid group

| SMILES | pKa 1 | pKa 4 | pKa 2 | pKa 3 |
| --- | --- | --- | --- | --- |
| O=C(O)CC(C(=O)O)C(CC(=O)O)C(=O)O (centres unmarked) [1,2,3,4-Butane tetracarboxylic acid] | 3.25 | 6.54 | 4.51 | 5.02 |
| O.O=C(O)c1cccc(C(=O)O)c1C(=O)O [1,2,3-Benzene tricarboxylic acid hydrate] | 2.52 |  | 4.00 | 6.12 |
| O=C(O)CC(CC(=O)O)C(=O)O [1,2,3-Propane tricarboxylic acid] | 4.31 |  | 4.82 | 5.21 |
| O=C(O)C=C(CC(=O)O)C(=O)O [1,2,3-Propene tricarboxylic acid] | 2.97 |  | 4.34 | 4.99 |
| O=C(O)c1cc(C(=O)O)c(C(=O)O)cc1C(=O)O [1,2,4,5-Benzene tetracarboxylic acid] |  | 5.80 | 2.71 | 4.97 |
| O=C(O)c1ccc(C(=O)O)c(C(=O)O)c1 [1,2,4-Benzene tricarboxylic acid] |  |  | 3.83 |  |
| O=C(O)c1ccc2c(c1)C(=O)OC2=O [1,2,4-Benzene tricarboxylic anhydride] | 3.33 |  |  |  |
| O=C(O)CC(O)(CC(=O)O)C(=O)O [Citric acid] | 2.93 | 16.13 | 4.23 | 5.09 |
| CC(=O)C(=O)O [Pyruvic acid] | 2.65 |  |  |  |
